Measurements reported in BindingDB's records for patent US20240376090 (Arena Pharmaceuticals, 2024).

Biological target: 5-hydroxytryptamine receptor 2A (Homo sapiens, UniProt P28223)
Assay: Radioligand Binding Assay Protocol
Procedure: Competition binding experiments consisted of addition of 5 μL of serially diluted test compound, 50 μL of radioligand stock diluted in Assay Buffer (20 mM HEPES, pH 7.4, 10 mM MgCl2), and 145 μL of diluted membrane expressing the receptor of interest to 96-well microtiter plates, which were then incubated for one hour at room temperature. Assay incubations were terminated by rapid filtration through Perkin Elmer GF/C filtration plates under vacuum pressure using a 96-well Packard filtration apparatus, followed by washing the filter plates several times with ice cold Assay Buffer. Plates were then dried at 45° C. for a minimum of four hours. Finally, 25 μL of BetaScint scintillation cocktail was added to each well and the plates were counted in a Packard TopCount scintillation counter. In each competition study, test compounds were assayed at 10 concentrations with three replicates at each test concentration.

Sequence of 5-hydroxytryptamine receptor 2A (P28223 whole entry): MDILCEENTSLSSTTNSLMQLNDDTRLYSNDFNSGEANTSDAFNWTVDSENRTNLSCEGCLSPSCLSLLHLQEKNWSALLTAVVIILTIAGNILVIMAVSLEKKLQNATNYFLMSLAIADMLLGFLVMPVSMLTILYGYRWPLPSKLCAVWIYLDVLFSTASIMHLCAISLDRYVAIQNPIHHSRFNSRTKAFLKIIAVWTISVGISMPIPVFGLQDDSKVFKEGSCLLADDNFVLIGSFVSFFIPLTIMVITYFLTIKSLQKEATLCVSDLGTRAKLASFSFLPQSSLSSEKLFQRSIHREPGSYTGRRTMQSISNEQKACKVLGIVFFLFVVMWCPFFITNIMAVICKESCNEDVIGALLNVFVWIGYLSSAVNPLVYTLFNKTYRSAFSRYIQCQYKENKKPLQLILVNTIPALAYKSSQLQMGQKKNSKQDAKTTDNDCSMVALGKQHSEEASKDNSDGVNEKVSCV

## CC/C(=C(/C)ON)c1cc(NC(=O)C[C@H]2CCOC2)ccc1OC[C@H]1CCCCN1 [US20240376090, Compound 202]
  Ki: 9.81 nM
